What all share (assay): TEAD lipid pocket TR-FRET (Lipid HTRF) probe competition assay
Holding throughout (assay type): binding

In one test the target is TEAD4 (Homo sapiens (Human), UniProt Q15561). How it is done:
(§1) His-tagged TEAD proteins are pre-incubated with TEAD project compounds for 30 minutes or 4 hours at room temperature. Biotinylated lipid pocket probes are then added to the TEAD/Compound mixture and incubated for 60 minutes at room temperature. The lipid pocket probe competes with the test compound for the TEAD lipid pocket until equilibrium is reached. After 60 minutes, Europium labelled anti-His (Perkin Elmer #ADO 110) and XL665 labelled streptavidin (CIS Bio 610SAXAC) are added to the TEAD/test compound/lipid pocket mixture and incubated for 30 minutes or 4 hours. […] If a TEAD lipid pocket binder such as binds and displaces the lipid pocket probe, the disruption of the TEAD:probe interaction results in a decrease in TR-FRET signal. The potency of compounds as TEAD lipid pocket binders is determined by IC50 value generated using a non-linear 4 parameter curve fit.
(§2) Note that the “Compound Number” in Table 2 and Table 3 corresponds to the “Compound Number” in Table 1.

Another test concerns the target TEAD2 (Homo sapiens (Human), UniProt Q15562). How it is done: as §1, §2
A further test concerns the target TEAD1 (Homo sapiens (Human), UniProt P28347). How it is done:
as §1, §2

A further test addresses TEAD3 (Homo sapiens (Human), UniProt Q99594). Conditions: 4 hours incubation with compound. How it is done:
as §1, §2

[1] abbreviates: 4 hours incubation with compound, read-out: Lipid HTRF TEAD4 IC50.
Setting [2] is: 4 hours incubation with compound, read-out: Lipid HTRF TEAD2 IC50.
Setting [3] is: 4 hours incubation with compound, read-out: Lipid HTRF TEAD1 IC50.
Setting [4] is: Lipid HTRF TEAD4 IC50, 4 hours incubation with compound.

Read-outs that look alike come from different tables or passages of the source. Bounds are passed on as bounds.

TEAD4, sequence (Q15561 whole entry, species assumed): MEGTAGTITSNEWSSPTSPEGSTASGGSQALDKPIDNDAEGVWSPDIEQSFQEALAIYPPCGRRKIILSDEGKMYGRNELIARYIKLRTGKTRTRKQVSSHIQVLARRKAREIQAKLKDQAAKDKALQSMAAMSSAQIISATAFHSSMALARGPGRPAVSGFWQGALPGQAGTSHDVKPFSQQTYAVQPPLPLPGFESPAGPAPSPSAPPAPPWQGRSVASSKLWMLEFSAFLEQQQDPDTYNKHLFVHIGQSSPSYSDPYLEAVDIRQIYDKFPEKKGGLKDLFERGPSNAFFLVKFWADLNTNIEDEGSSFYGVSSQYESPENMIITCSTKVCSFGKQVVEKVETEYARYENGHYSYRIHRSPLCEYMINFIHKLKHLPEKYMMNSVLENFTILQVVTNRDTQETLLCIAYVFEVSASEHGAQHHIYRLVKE
TEAD1, sequence (P28347 whole entry, species assumed): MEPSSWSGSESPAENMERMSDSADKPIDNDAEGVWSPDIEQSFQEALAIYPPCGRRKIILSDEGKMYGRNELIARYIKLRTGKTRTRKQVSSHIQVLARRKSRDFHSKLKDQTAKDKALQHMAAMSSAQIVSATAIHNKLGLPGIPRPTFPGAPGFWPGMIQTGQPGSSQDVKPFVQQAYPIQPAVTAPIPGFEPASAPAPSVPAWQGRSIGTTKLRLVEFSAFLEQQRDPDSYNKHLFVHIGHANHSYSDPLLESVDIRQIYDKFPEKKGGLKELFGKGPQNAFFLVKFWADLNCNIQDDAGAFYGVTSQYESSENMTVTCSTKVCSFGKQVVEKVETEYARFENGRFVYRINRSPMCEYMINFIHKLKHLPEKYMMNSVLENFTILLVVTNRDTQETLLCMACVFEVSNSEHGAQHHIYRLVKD
TEAD3, sequence (Q99594 whole entry, species assumed): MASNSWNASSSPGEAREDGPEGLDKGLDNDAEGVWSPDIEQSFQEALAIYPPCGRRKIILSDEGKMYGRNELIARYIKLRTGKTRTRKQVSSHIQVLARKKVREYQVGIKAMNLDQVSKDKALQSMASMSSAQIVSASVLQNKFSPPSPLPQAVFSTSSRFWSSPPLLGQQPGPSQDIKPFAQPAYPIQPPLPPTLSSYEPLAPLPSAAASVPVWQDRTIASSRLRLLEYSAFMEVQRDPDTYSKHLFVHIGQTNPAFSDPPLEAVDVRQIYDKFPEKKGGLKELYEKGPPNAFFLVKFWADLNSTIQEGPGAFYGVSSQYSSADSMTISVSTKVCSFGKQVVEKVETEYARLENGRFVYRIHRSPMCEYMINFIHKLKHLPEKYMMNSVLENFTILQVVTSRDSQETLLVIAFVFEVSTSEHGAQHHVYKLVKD
TEAD2, sequence (Q15562 whole entry): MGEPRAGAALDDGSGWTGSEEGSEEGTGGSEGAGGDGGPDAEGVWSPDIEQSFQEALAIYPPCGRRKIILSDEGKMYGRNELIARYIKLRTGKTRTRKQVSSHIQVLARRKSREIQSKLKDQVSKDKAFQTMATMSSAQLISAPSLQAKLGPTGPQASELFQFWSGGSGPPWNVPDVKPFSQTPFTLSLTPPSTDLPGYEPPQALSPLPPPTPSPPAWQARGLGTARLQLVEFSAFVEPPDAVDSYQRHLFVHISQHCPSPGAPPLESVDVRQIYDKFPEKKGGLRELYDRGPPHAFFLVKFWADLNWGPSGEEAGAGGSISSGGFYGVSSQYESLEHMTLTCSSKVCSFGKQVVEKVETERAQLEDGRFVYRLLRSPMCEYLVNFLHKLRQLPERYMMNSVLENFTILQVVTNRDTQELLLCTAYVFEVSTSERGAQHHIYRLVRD

On to `C=C(CNc1cc(-c2ncc(C(C)C)s2)c2c(c1C#N)CCO2)C(=O)NO` [Compound 27, 2-[[[4-cyano-7-(5-isopropylthiazol-2-yl)-2,3-dihydrobenzofuran-5-yl]amino]methyl]prop-2-enehydroxamic acid], for which the IC50 (as a rule, the point on the concentration scale where inhibition reaches its midpoint) at TEAD4 (setting [1]) was 0.17 µM; at TEAD2 (setting [2]) it was 0.11 µM; on TEAD1 (setting [3]), 0.31 µM; at TEAD3 it was > 50 µM.

As to `[2H]C1([2H])COc2c(-c3ccc(C(C)C)cc3)cc(NCC(=C)C(=O)NO)c(C#N)c21` [Compound 29, 2-[[[4-cyano-3,3-dideuterio-7-(4-isopropylphenyl)-2H-benzofuran-5-yl]amino]methyl]prop-2-enehydroxamic acid], the IC50 at TEAD4 (setting [1]) was found to be 0.04 µM; at TEAD2 (setting [2]), 0.01 µM; on TEAD1 (setting [3]), 0.06 µM; on TEAD3, 0.43 µM.

For the compound `C=C(CNc1cc(-c2nc(C(C)C)cs2)c2c(c1C#N)CCO2)C(=O)NO` [Compound 31, 2-[[[4-cyano-7-(4-isopropylthiazol-2-yl)-2,3-dihydrobenzofuran-5-yl]amino]methyl]prop-2-enehydroxamic acid], the 50% inhibitory concentration (IC50) is 36 µM at TEAD4 (setting [1]), 0.86 µM on TEAD2 (setting [2]), > 50 µM at TEAD1 (setting [3]) and > 50 µM on TEAD3.

`C=C(CNc1cc(-c2cc(C(C)C)cs2)c2c(c1C#N)CCO2)C(=O)O` [Compound 32, 2-[[[4-cyano-7-(4-isopropyl-2-thienyl)-2,3-dihydrobenzofuran-5-yl]amino]methyl]prop-2-enoic acid]: the IC50 worked out at 0.01 µM on TEAD4 (setting [1]), 0.04 µM at TEAD2 (setting [2]), 0.01 µM at TEAD1 (setting [3]) and 0.43 µM on TEAD3.

As for `[2H]C1([2H])COc2c(-c3ccc(C(C)C)cc3)cc(NCC(=C)C(N)=O)c(C#N)c21` [Compound 33, 2-[[[4-cyano-3,3-dideuterio-7-(4-isopropylphenyl)-2H-benzofuran-5-yl]amino]methyl]prop-2-enamide], the IC50 at TEAD4 (setting [4]) is 0.08 µM; at TEAD2 (setting [2]), 0.06 µM; on TEAD1 (setting [3]), 0.18 µM; on TEAD3, 1.4 µM.

As to `C=C(CNc1cc(-c2ccc(OC(F)(F)F)cc2)c2c(c1CO)CCO2)C(N)=O` [Compound 35, 2-[[[4-(hydroxymethyl)-7-[4-(trifluoromethoxy)phenyl]-2,3-dihydrobenzofuran-5-yl]amino]methyl]prop-2-enamide], the IC50 was determined as 0.25 µM at TEAD4 (setting [1]), 0.03 µM at TEAD2 (setting [2]), 0.16 µM at TEAD1 (setting [3]) and 1.7 µM at TEAD3.

In the case of `C=C(CNc1cc(-n2ccc(C(C)C)n2)c2c(c1C#N)CCO2)C(=O)NO` [Compound 36, 2-[[[4-cyano-7-(3-isopropylpyrazol-1-yl)-2,3-dihydrobenzofuran-5-yl]amino]methyl]prop-2-enehydroxamic acid], the IC50 on TEAD4 (setting [1]) was > 50 µM; on TEAD2 (setting [2]), 0.71 µM; at TEAD1 (setting [3]), > 50 µM; on TEAD3, > 50 µM.

As for `[2H]C1([2H])Cc2c(C#N)c(NCC(=C)C(=O)NO)cc(-c3ccc(OC(F)(F)F)cc3)c2O1` [Compound 37, 2-[[[4-cyano-2,2-dideuterio-7-[4-(trifluoromethoxy)phenyl]-3H-benzofuran-5-yl]amino]methyl]prop-2-enehydroxamic acid], the IC50 on TEAD4 (setting [1]) worked out at 0.05 µM; at TEAD2 (Lipid HTRF TEAD2 IC50, 4 hours incubation with compound), 0.01 µM; at TEAD1 (setting [3]), 0.05 µM; at TEAD3 it was 0.42 µM.

In the case of `C=C(CNc1cc(-c2ccc(S(F)(F)(F)(F)F)cc2)c2c(c1C#N)CCO2)C(=O)NO` [Compound 38, 2-[[[4-cyano-7-[4-(pentafluoro-lambda6-sulfanyl)phenyl]-2,3-dihydrobenzofuran-5-yl]amino]methyl]prop-2-enehydroxamic acid], the IC50 at TEAD4 (setting [1]) came out at 0.08 µM; at TEAD2 (setting [2]) it was 0.03 µM; at TEAD1 (setting [3]) it was 0.09 µM; on TEAD3 it was 0.71 µM.

Regarding `C=C(CNc1cc(-c2ccc(OC(F)(F)F)cc2)c2c(c1C#N)CCO2)C(=O)NO` [Compound 39, 2-[[[4-cyano-7-[4-(trifluoromethoxy)phenyl]-2,3-dihydrobenzofuran-5-yl]amino]methyl]prop-2-enehydroxamic acid], the IC50 at TEAD4 (setting [1]) turned out to be 0.06 µM; on TEAD2 (setting [2]) it was 0.01 µM; on TEAD1 (setting [3]), 0.04 µM; at TEAD3 it was 0.4 µM.

In the case of `[2H]C1([2H])COc2c(-c3ccc(C(C)C)cc3)cc(NCC(=C)C(=O)O)c(C#N)c21` [Compound 40, 2-[[[4-cyano-3,3-dideuterio-7-(4-isopropylphenyl)-2H-benzofuran-5-yl]amino]methyl]prop-2-enoic acid], the IC50 at TEAD4 (setting [4]) came out at 0.02 µM; on TEAD2 (setting [2]), 0.04 µM; at TEAD1 (Lipid HTRF TEAD1 IC50, 4 hours incubation with compound) it was 0.02 µM; at TEAD3 it was 0.68 µM.

In the case of `C=C(CNc1cc(-c2ccc(OC(F)(F)F)cc2)c2ncsc2c1C#N)C(=O)NO` [Compound 41, 2-[[[7-cyano-4-[4-(trifluoromethoxy)phenyl]-1,3-benzothiazol-6-yl]amino]methyl]prop-2-enehydroxamic acid], the IC50 amounted to 0.04 µM at TEAD4 (setting [1]), 0.01 µM at TEAD2 (setting [2]), 0.08 µM on TEAD1 (setting [3]) and 0.66 µM on TEAD3.

For `C=C(CNc1cc(-c2ccc(OC(F)(F)F)cc2)c2c(c1C#N)CCO2)C(=O)N(C)O` [Compound 43, 2-[[[4-cyano-7-[4-(trifluoromethoxy)phenyl]-2,3-dihydrobenzofuran-5-yl]amino]methyl]-N-hydroxy-N-methyl-prop-2-enamide], the IC50 on TEAD4 (setting [1]) turned out to be 0.52 µM; at TEAD2 (setting [2]), 1.7 µM; at TEAD1 (setting [3]) it was 0.4 µM; on TEAD3, 18 µM.

On to `C=C(CNc1cc(-c2ccc(OC(F)(F)F)cc2)c2c(c1C#N)CCO2)C(N)=O` [Compound 44, 2-[[[4-cyano-7-[4-(trifluoromethoxy)phenyl]-2,3-dihydrobenzofuran-5-yl]amino]methyl]prop-2-enamide], for which the IC50 amounted to 0.14 µM at TEAD4 (setting [1]), 0.04 µM at TEAD2 (setting [2]), 0.11 µM on TEAD1 (setting [3]) and 1.2 µM on TEAD3.

As to `C=C(CNc1cc(-c2ccc(S(F)(F)(F)(F)F)cc2)c2c(c1C#N)CCO2)C(=O)O` [Compound 45, 2-[[[4-cyano-7-[4-(pentafluoro-lambda6-sulfanyl)phenyl]-2,3-dihydrobenzofuran-5-yl]amino]methyl]prop-2-enoic acid], the IC50 stood at 0.08 µM at TEAD4 (setting [1]), 0.17 µM on TEAD2 (setting [2]), 0.03 µM at TEAD1 (setting [3]) and 0.92 µM on TEAD3.

For `C=C(CNc1cc(-c2ccc(OC(F)(F)F)cc2)c2c(c1CO)CCO2)C(=O)NO` [Compound 46, 2-[[[4-(hydroxymethyl)-7-[4-(trifluoromethoxy)phenyl]-2,3-dihydrobenzofuran-5-yl]amino]methyl]prop-2-enehydroxamic acid], the half-maximal inhibitory concentration (IC50) at TEAD4 (setting [1]) worked out at 0.06 µM; at TEAD2 (setting [2]), 0.01 µM; on TEAD1 (setting [3]), 0.05 µM; on TEAD3, 0.44 µM.

As for `C=C(CNc1cc(-c2ccc(S(F)(F)(F)(F)F)cc2)c2c(c1C#N)CCO2)C(N)=O` [Compound 48, 2-[[[4-cyano-7-[4-(pentafluoro-lambda6-sulfanyl)phenyl]-2,3-dihydrobenzofuran-5-yl]amino]methyl]prop-2-enamide], the IC50 at TEAD4 (setting [1]) worked out at 0.26 µM; on TEAD2 (setting [2]), 0.22 µM; on TEAD1 (setting [3]) it was 0.25 µM; on TEAD3, 2.6 µM.

`C=C(CNc1cc(-c2ncc(C(C)C)s2)c2c(c1C#N)CCO2)C(=O)O` [Compound 49, 2-[[[4-cyano-7-(5-isopropylthiazol-2-yl)-2,3-dihydrobenzofuran-5-yl]amino]methyl]prop-2-enoic acid]: the concentration for half-maximal inhibition (IC50) on TEAD4 (setting [1]) amounted to 0.09 µM; at TEAD2 (setting [2]), 0.24 µM; at TEAD1 (setting [3]), 0.31 µM; at TEAD3, 2.8 µM.

Consider `C=C(CNc1cc(-c2ccc(S(F)(F)(F)(F)F)cc2)c2ncsc2c1C#N)C(=O)NO` [Compound 51, 2-[[[7-cyano-4-[4-(pentafluoro-lambda6-sulfanyl)phenyl]-1,3-benzothiazol-6-yl]amino]methyl]prop-2-enehydroxamic acid], for which the IC50 at TEAD4 (setting [1]) worked out at 0.06 µM; on TEAD2 (setting [2]), 0.03 µM; on TEAD1 (setting [3]) it was 0.2 µM; on TEAD3, 1.2 µM.

For the origin of these results see patent US11787775B2, “Therapeutic compounds and methods of use” (priority 2020, dated 2023).
